In ChEMBL document CHEMBL1157075, “Antiangiogenic metabolites from a marine-derived fungus, Hypocrea vinosa” (J Nat Prod, 2010) one finds inhibition, IC50 and Activity data, which are given here for 9 molecules.

Activity calls are given as the source filed them. No cut-off for these calls is given here. A value given as a limit tells only on which side of the number the result lay.

For series [1], the system named is HUVEC. Kind of series: Inhibition of VEGF-induced HUVEC migration at 1 ug/ml after 22 hrs by microscopy. Particulars: Homo sapiens. The format is functional.
For series [2], the system named is HUVEC. Kind of series: Inhibition of protein tyrosine kinase in HUVEC lysates at 100 ug/ml after 2 hrs. The format is cell-based. As to conditions: Homo sapiens.
Series [3] relates to HUVEC. The series is described as follows: Inhibition of protein tyrosine kinase in HUVEC lysates at 10 ug/ml after 2 hrs. The format is cell-based. As to conditions: Homo sapiens.
For series [4], the system named is HUVEC. Kind of series: Inhibition of VEGF-induced HUVEC migration at 10 ug/ml after 22 hrs by microscopy. It is filed as functional. As to conditions: Homo sapiens.
The test system of series [5] is HUVEC. Kind of series: Antiproliferative activity against HUVEC after 72 hrs by MTT assay. It is filed as cell-based. Particulars: Homo sapiens. Background: Tetrazolium assays rely on reduction of a dye to a coloured formazan, in cell work by metabolically active cells.
The nature of series [6]: Inhibition of protein tyrosine kinase in HUVEC lysates after 2 hrs. It is filed as cell-based, Homo sapiens.
The subject of series [7] is HUVEC. The series is described as follows: Inhibition of protein tyrosine kinase in HUVEC lysates at 1 ug/ml after 2 hrs. As to conditions: Homo sapiens. The format is cell-based.
Series [8] has as its system HUVEC. Kind of series: Inhibition of VEGF-induced HUVEC migration after 22 hrs by microscopy. The format is functional, cell-based. Particulars: Homo sapiens.
In series [9] the test system is NHDF. The series is described as follows: Cytotoxicity against NHDF after 72 hrs by WST8 assay. The format is cell-based. As to conditions: Homo sapiens.
The test system of series [10] is HUVEC. Kind of series: Antiangiogenic activity against HUVEC assessed as inhibition VEGF-stimulated tubule formation at 10 ug/ml after 11 days by microscopy. The format is functional, cell-based. As to conditions: Homo sapiens.
Series [11] concerns HeLa. The series is described as follows: Cytotoxicity against human HeLa cells after 72 hrs by WST8 assay. It is filed as functional, cell-based.
The subject of series [12] is NHDF. The series is described as follows: Antiangiogenic activity against NHDF assessed as inhibition VEGF-stimulated tubule formation at 10 ug/ml after 11 days by microscopy. The format is functional, cell-based. Particulars: Homo sapiens.
Series [13] has as its system HUVEC. The series is described as follows: Inhibition of VEGF-induced HUVEC migration at 0.1 ug/ml after 22 hrs by microscopy. It is filed as functional. Particulars: Homo sapiens.
Series [14] relates to P388. Kind of series: Antitumor activity against mouse P388 cells xenografted in mouse at 20 mg/kg. The format is functional, organism-based. The arrangement: dose 20 mg/kg.
The species entered for series [15] is Mus musculus. Kind of series: Toxicity in mouse assessed as reduction of body weight. As to conditions: in vivo. The format is organism-based.
Series [16] has as its system P388. Kind of series: Antitumor activity against mouse P388 cells xenografted in mouse. The format is functional.
In series [17] the test system is Mus musculus. Kind of series: Toxicity in mouse at 60 mg/kg. It is filed as organism-based. On the set-up: dose 60 mg/kg. Particulars: in vivo.

The inhibition is the percentage by which the read-out fell short of the control. The term IC50 denotes the midpoint of a concentration-inhibition curve. Lower therefore signals greater potency in that assay. Regarding `CC(=O)Cc1cc(=O)c2c(O)c3c(O)cc(O)c(-c4c(O)cc(O)c5c(O)c6c(=O)cc(CC(C)=O)oc6cc45)c3cc2o1`, testing at 1 µg/mL in series [1] gave an inhibition of 57.8%. In addition, the inhibition in [2] worked out at 66.2%; in series [3], 38.3%; in series [7], 11%. In addition, the inhibition at 10 µg/mL in series [4] came out at 86.7%. The IC50 in series [5] is 17.4 µM; in series [6], 42.1 µM; in [8] it was 1.09 µM; in [9] it was > 500 µM; in series [11], 209 µM. Moreover, the inhibition entry in series [10] and in series [12] was “Active” throughout. In addition, the inhibition at 0.1 µg/mL in series [13] worked out at 20%.
`C[C@H]1Oc2cc3c(-c4c(O)cc(O)c5c(O)c6c(cc45)O[C@H](C)[C@@H](C)C6=O)c(O)cc(O)c3c(O)c2C(=O)[C@@H]1C`: the result in series [14] was Active.
With `C[C@@H]1Oc2cc3c(-c4c(O)cc(O)c5c(O)c6c(cc45)O[C@H](C)[C@@H](C)C6=O)c(O)cc(O)c3c(O)c2C(=O)[C@@H]1C` [CHAETOCHROMIN B], in series [15], the Activity result is “Toxic”. Besides, in series [16], the outcome was Active.
For `CC1CC(=O)c2c(cc3c(-c4c(O)cc(O)c5c(O)c6c(cc45)O[C@H](C)[C@@H](C)C6=O)c(O)cc(O)c3c2O)O1` (stereo not given in full) [CHAETOCHROMIN C], the Activity result in series [15] is given as “Toxic”. Besides, in [16], the result was Active.
The matching figures for `Cc1oc2cc3c(-c4c(O)cc(O)c5c(O)c6c(cc45)O[C@@H](C)[C@H](C)C6=O)c(O)cc(O)c3c(O)c2c(=O)c1C` [CHAETOCHROMIN D]: “Toxic” and “Active”.
In turn, `CC(=O)Cc1cc(=O)c2c(O)c3c(O)cc(O)c(-c4c(O)cc(O)c5c(O)c6c(=O)cc(CC(C)O)oc6cc45)c3cc2o1` (stereo not given) [HYPOCHROMIN A] gave an inhibition at 1 µg/mL in series [1] of 62.2%. The inhibition in series [2] is 73.4%; in series [3], 21.9%; in series [7] it was 0%. The molecule further yielded an inhibition at 10 µg/mL in series [4] of 100%. The IC50 in [5] amounted to 50 µM; in [6], 58.7 µM; in series [8], 0.87 µM. In addition, the inhibition result in series [10] and in series [12] was “Active” each time. In addition, the inhibition at 0.1 µg/mL in series [13] came out at 28.9%.
As to `CC(=O)Cc1cc(=O)c2c(O)c3c(O)cc(O)c(-c4c(O)cc(O)c5c(O)c6c(=O)cc(C)oc6cc45)c3cc2o1` [HYPOCHROMIN B], in series [1], the inhibition at 1 µg/mL was 53.3%. Also, the inhibition is 72.4% in [2], 50% in series [3] and 12.4% in [7]. The same molecule had an inhibition at 10 µg/mL in series [4] of 95.6%. Besides, the half-inhibitory concentration (IC50) in [5] is 13.1 µM; in series [6], 18 µM; in series [8] it was 1.51 µM. Moreover, the inhibition entry in [10] and in series [12] was “Active” each time. Testing at 0.1 µg/mL in series [13] gave an inhibition of 33.3%.
On to `Cc1cc(=O)c2c(O)c3c(O)cc(O)c(-c4c(O)cc(O)c5c(O)c6c(=O)cc(C)oc6cc45)c3cc2o1` [USTILAGINOIDIN A], for which, in [17], the Activity result is “Toxic”.
Turning to `Cc1cc(=O)c2c(O)c3c(O)cc(O)c(-c4c(O)cc(O)c5c(O)c6c(cc45)OC(C)CC6=O)c3cc2o1` (stereo not given) [USTILAGINOIDIN G], the Activity result in [15] was “Toxic”. Besides, the outcome in series [16] was Active.
